Source: patent publication US7772216B2, “Protein kinase and phosphatase inhibitors and methods for designing them” (The Research Foundation of State University of New York, priority 2001, dated 2010)
Several values for one entry are separate records, joined by “and”; a condition that tells them apart may be missing. Identical values can stand only once. Like-named read-outs stand apart in the source and are kept apart here. Blank lines part the entries; values can stand above or below the molecule they belong to. Starred links: 1 amine or outer side, 2 acyl side, 3 side chain; linkers in the order of their positions; H or OH if unused. Non-standard residues stand in square brackets, D forms with d. Residues, ends and D or L forms follow the SMILES beside them. X4 = O=C([C@H](CCCB(O)O)N[*:1])[*:2]; X2 = O=C([C@@H](CB(O)O)N[*:1])[*:2]; X1 = O=C([C@H](CB(O)O)N[*:1])[*:2]

Columns and labels:
EGFRTK = EGFRTK (Homo sapiens, UniProt P00533); experiment: EGFRTK inhibition; format: biochemical; conditions: % inhibition at 10 micromolar compound
Sequence of EGFRTK (P00533 25-1210): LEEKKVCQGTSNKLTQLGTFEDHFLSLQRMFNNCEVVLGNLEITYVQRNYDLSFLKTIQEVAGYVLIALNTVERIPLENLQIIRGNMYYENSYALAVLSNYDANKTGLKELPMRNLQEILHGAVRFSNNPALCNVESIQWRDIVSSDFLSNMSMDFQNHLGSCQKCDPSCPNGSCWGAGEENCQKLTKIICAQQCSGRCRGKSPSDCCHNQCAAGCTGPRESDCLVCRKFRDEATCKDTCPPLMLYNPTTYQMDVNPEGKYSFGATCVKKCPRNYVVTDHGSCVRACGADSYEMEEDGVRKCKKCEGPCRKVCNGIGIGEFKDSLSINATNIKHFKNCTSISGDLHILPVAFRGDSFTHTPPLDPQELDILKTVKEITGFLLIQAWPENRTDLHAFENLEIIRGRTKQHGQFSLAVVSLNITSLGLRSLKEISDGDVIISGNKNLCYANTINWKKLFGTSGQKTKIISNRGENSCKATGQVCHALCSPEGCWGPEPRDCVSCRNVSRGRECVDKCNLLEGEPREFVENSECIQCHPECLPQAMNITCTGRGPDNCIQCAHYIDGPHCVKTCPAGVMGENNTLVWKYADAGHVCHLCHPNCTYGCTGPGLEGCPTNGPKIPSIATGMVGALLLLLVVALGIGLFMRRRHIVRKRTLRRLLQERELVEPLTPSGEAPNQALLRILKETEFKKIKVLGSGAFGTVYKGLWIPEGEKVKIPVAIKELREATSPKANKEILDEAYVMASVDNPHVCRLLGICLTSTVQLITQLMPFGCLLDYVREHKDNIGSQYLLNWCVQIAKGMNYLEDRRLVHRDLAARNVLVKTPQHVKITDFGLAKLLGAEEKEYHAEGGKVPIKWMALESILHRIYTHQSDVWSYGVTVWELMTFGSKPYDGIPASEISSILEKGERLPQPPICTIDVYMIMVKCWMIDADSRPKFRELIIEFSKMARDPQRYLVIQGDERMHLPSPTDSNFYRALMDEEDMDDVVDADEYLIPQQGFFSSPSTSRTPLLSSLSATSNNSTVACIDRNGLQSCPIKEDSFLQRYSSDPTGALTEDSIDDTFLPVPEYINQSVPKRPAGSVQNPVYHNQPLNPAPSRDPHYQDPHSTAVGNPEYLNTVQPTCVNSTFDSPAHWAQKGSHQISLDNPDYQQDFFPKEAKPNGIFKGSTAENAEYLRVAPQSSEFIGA
Source text: (§1) Blanks for a particular enzyme indicate that inhibition was not found.

PTP-1B = target: T1, PTP-1B (Homo sapiens, UniProt P18031); experiment: PTP-1B inhibition; format: biochemical; conditions: % inhibition at 10 micromolar compound
T1 sequence (P18031 1-435): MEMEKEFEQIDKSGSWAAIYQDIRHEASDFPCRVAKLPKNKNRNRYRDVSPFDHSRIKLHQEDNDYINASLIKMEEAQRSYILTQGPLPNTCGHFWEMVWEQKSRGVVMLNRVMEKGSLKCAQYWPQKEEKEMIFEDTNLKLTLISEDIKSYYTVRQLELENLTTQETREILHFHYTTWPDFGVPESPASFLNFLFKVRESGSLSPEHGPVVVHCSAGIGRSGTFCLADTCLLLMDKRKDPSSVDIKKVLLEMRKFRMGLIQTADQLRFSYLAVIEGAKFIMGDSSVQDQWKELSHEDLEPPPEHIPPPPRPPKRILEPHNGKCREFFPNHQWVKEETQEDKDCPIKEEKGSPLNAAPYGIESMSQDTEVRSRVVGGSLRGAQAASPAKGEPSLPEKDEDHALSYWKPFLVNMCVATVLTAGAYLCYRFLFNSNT
Source text: as §1

PKA [1] = target: T2, PKA (Homo sapiens, UniProt P17612); experiment: Cellular Mimetic PKA assay; format: biochemical; conditions: for % sti (stimulation): 2000 μM inhibitor, C; for IC50: Cellular Mimetic
Source text: (§2) The boronic acid inhibitors 21-24 have two Arg's in their sequence also and therefore will bind to the phosphocellulose paper in addition to Kemptamide (although not as consistently or completely due to one less positive charge). Consequently, when analyzed as inhibitors, the amount of phosphorylated Kemptamide produced was not only counted, but also the amount of phosphorylated inhibitor simultaneously produced (e.g. see 26 below). The net result is that distorted IC50 curves are obtained which show net “stimulation” at higher inhibitor concentrations in some cases. […] The underlying substrate behavior of these “inhibitors” makes an accurate measurement of their inhibition potency impossible with the current assay. However, it does appear from the data that homologating the boronic acid functionality out with only CH2 groups (homologations with boronic acid non-peptide Src inhibitors may also be carried out) decreases the binding affinity and ability to function as a substrate.
Phosphorylated Kemptamide is SEQ. ID. No. 6. Phosphorylated 22 is SEQ. ID. No. 4. […] The graphs show their respective rates and levels of phosphorylation with the typical loss of initial velocity kinetics with time (due to substrate depletion and end product inhibition), analogous to a standard L-Ser substrate such as Kemptamide. The comparison of 21 to 22 shown was done in the same assay run, at identical boronic acid substrate concentrations, and with identical Cellular Mimetic assay solutions so that the cpm's could be directly compared. […] That the boronic acid moiety would be phosphorylated by PKA was surprising, but it is even more surprising that the phosphonic-boronic acid mixed anhydride produced (e.g. 26) was stable enough to survive the pH 7.2/37° C. assay incubation and then be isolated by binding to phosphocellulose paper after acid quenching of the reaction with 10% TCA and washing the phosphocellulose paper with 25 mM phosphoric acid (3×). An STN substructure search was run on mixed anhydrides of phosphoric and boronic acids and found only three references to experiments and theoretical calculations for the analogous putative (but not proven) anhydride formed from boric acid and phosphoric acid as a solid surface impregnated catalyst for the partial oxidation of ethane to acetaldehyde at 823° K. (Zhanpeisov & Otsuka, 1992, Otsuka et al., 1992, Murakami et al., 1990). However, this highly unusual anhydride has never before been synthesized free of a solid surface, isolated, or characterized. Thus, this is a novel enzymatic reaction and chemical entity with interesting possibilities for protein kinase inhibitor designs.

PKA [2] = target: T2, PKA; experiment: Literature Mimetic PKA assay; format: biochemical; conditions: for IC50: Literature Mimetic; for Ki: Literature Mimetic (L) conditions, pentapeptide PKA inhibitors, read-out: Ki; for inhibition at 1000 µM: 1000 μM inhibitor
Source text: as §2

pp60^c-src = pp60^c-src (Homo sapiens, UniProt P12931); experiment: Cellular Mimetic Src assay (RR-SRC phosphorylation); conditions: for inhibition at 45 µM: inhibitor at 45 μM
Sequence of pp60^c-src (P12931 whole entry): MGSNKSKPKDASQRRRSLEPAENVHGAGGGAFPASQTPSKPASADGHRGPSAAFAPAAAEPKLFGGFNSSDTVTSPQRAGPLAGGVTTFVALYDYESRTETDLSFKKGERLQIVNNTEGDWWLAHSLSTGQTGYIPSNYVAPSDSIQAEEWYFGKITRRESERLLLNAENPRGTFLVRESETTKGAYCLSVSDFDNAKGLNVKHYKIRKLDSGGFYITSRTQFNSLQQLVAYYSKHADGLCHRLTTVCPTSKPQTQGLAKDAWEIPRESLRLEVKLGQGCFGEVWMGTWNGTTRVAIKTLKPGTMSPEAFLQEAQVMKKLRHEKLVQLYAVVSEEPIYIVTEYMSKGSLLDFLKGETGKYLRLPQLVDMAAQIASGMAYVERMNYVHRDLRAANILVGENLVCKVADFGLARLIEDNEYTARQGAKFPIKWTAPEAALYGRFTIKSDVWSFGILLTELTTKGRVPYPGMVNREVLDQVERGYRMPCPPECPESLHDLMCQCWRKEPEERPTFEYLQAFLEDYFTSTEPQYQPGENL

[3] = 0 h preincubation, * very distorted IC50 curve, read-out: IC50 μM (cond. C, 0 h preincubation)
[4] = IC50 μM (cond. L, 4 h preincubation), 4 h preincubation, * very distorted IC50 curve
[5] = 0 h preincubation, read-out: IC50 μM (cond. L, 0 h preincubation)
[6] = read-out: % Inhibition of 2 mM RR-src at Inhibitor Concentration (100 μM)
[7] = IC50 μM (cond. C, 4 h preincubation), 4 h preincubation

Molecule: O=C(NCCCCCCO)c1cc2cc(F)ccc2[nH]1 [Compound 1qqqq]
EGFRTK @ 10 μm (EGFRTK): 18%

Molecule: O=C(Nc1ccccc1CO)c1cc2cc(F)ccc2[nH]1 [Compound 1xxx]
PTP-1B @ 10 μm (PTP-1B): 12%

Molecule: O=C(NCc1cc(C(F)(F)F)ccc1F)c1cc2cc(F)ccc2[nH]1 [Compound 1aaa]
PTP-1B @ 10 μm (PTP-1B): 12%

Molecule: O=C(NCc1cc(O)cc(OCc2ccccc2)c1)c1cc2cc(F)ccc2[nH]1 [Compound 1dddd]
PTP-1B @ 10 μm (PTP-1B): 16%

Molecule: OB(O)c1ccc(-c2ccccc2)cc1
inhibition at 100 µM (pp60^c-src; [6]): 13%

Molecule: CCCOc1ccc(CNC(=O)c2cc3cc(F)ccc3[nH]2)cc1O [Compound 1nnnn]
EGFRTK @ 10 μm (EGFRTK): 17%

Molecule: COC(=O)c1cc2ccc(O)cc2cc1O
inhibition at 100 µM (pp60^c-src; [6]): 47%

Molecule: COC(=O)c1cc2cc(O)ccc2[nH]1
inhibition at 500 µM (pp60^c-src; read-out: % Inhibition of 2 mM RR-src at Inhibitor Concentration (500 μM)): 40%

Molecule: O=C(NCc1ccc(OCc2ccccc2)c(O)c1)c1cc2cc(F)ccc2[nH]1 [Compound 1jjjj]
PTP-1B @ 10 μm (PTP-1B): 15%

Molecule: O=C(NCc1cccc(O)c1)c1cc2cc(O)ccc2[nH]1 [Cmpd 2k]
inhibition at 45 µM (pp60^c-src; [ATP] 200 μM): 46% | inhibition at 45 µM (pp60^c-src; [ATP] 1,000 μM): 41% | inhibition at 100 µM (pp60^c-src; read-out: % Inhibition at 100 μM (std. dev.), Table X, hydroxyindole derivatives): 74%

Molecule: COc1cc(CNC(=O)c2cc3cc(F)ccc3[nH]2)cc(OC)c1 [Compound 1hhhh]
PTP-1B @ 10 μm (PTP-1B): 17%

Second part, the molecule after the results:

% sti (stimulation) (PKA [1]; 4 h preincubation): 71% | % sti (stimulation) (PKA [1]; 4 h preincubation, listed as drawing 33): *2000 μM 71% sti | IC50 (PKA [1]; [3]): 1750 µM | IC50 (PKA [2]; [4]): 65 µM | IC50 (PKA [2]; [5]): 81 µM
Molecule: CC[C@H](C)[C@H](NC(=O)[C@@H](CB(O)O)NC(=O)CNC(=O)[C@H](CCCNC(=N)N)NC(=O)[C@H](CCCNC(=N)N)NC(C)=O)C(N)=O [Compound 22] (Ac-RRG[X2]I-NH2)

% sti (stimulation) (PKA [1]; 4 h preincubation): 19% | % sti (stimulation) (PKA [1]; 4 h preincubation, listed as drawing 32): *2000 μM 19% sti | IC50 (PKA [1]; [3]): 764 µM | inhibition at 500 µM (PKA [2]; 500 μM inhibitor, L, 4 h preincubation): 34% | Ki (PKA [2]): ~9 µM | IC50 (PKA [2]; [5]): 249 µM | inhibition at 100 µM (pp60^c-src; read-out: % Inhibition at 100 μM (std. dev.)): 54%
Molecule: CC[C@H](C)[C@H](NC(=O)[C@H](CB(O)O)NC(=O)CNC(=O)[C@H](CCCNC(=N)N)NC(=O)[C@H](CCCNC(=N)N)NC(C)=O)C(N)=O [Compound 21] (Ac-RRG[X1]I-NH2)

% sti (stimulation) (PKA [1]; 0 h preincubation): 2000 μM 6% sti | IC50 (PKA [1]; [7]): 1730 µM | inhibition at 1000 µM (PKA [2]; L, 0 h preincubation): 33% | inhibition at 1000 µM (PKA [2]; L, 4 h preincubation): 44%
Molecule: CC[C@H](C)[C@H](NC(=O)[C@H](CCCB(O)O)NC(=O)CNC(=O)[C@H](CCCNC(=N)N)NC(=O)[C@H](CCCNC(=N)N)NC(C)=O)C(N)=O (Ac-RRG[X4]I-NH2)

PTP-1B @ 10 μm (PTP-1B): 10%
Molecule: O=C(NCc1ccccc1Cl)c1cc2cc(F)ccc2[nH]1 [Compound 1yy]

inhibition at 100 µM (pp60^c-src; read-out: % Inhibition at 100 μM (std. dev.), Table IX, hydroxynaphthalene derivatives and published inhibitors): 41%
Molecule: Oc1cc(O)cc(/C=C/c2ccc(O)c(O)c2)c1 [Piceatannol, reference compound]

EGFRTK @ 10 μm (EGFRTK): 12%
Molecule: O=C(NCc1ccc(F)cc1C(F)(F)F)c1[nH]c2ccc(F)cc2c1-c1ccccc1 [Compound 2hh]

PTP-1B @ 10 μm (PTP-1B): 12%
Molecule: O=C(NCc1ccc(Cl)cc1)c1[nH]c2ccc(F)cc2c1-c1ccccc1 [Compound 2gg]

EGFRTK @ 10 μm (EGFRTK): 10%
Molecule: O=C(NCc1cc(Br)ccc1F)c1[nH]c2ccc(F)cc2c1-c1ccccc1 [Compound 2ll]

Ki (PKA [1]; Cellular Mimetic (C) conditions): 25 µM | IC50 (PKA [1]; [3]): 41 µM | IC50 (PKA [1]; [7]): 50 µM | IC50 (PKA [2]; [4]): 417 µM | Ki (PKA [2]): ~9 µM and 9 µM | IC50 (PKA [2]; [5]): 278 µM
Molecule: Ac-RRGAI-NH2 [Compound 20]

EGFRTK @ 10 μm (EGFRTK): 11%
Molecule: O=C(Nc1cccc(CO)c1)c1cc2cc(F)ccc2[nH]1 [Compound 1yyy]
